# Source: ChEMBL document CHEMBL5365497, “Developing Novel Coumarin-Containing Azoles Antifungal Agents by the Scaffold Merging Strategy for Treating Azole-Resistant Candidiasis” (J Med Chem, 2023)
# Legend:
# Format in all cases: functional
# [1] = tested on: Candida albicans; experiment: Antifungal activity against Candida albicans CPCC400616 assessed as fungal growth inhibition by CLSI based microdilution method
# [2] = tested on: Candida albicans; experiment: Antifungal activity against Candida albicans SC5314 assessed as fungal growth inhibition by CLSI based microdilution method
# [3] = tested on: Candida parapsilosis; experiment: Antifungal activity against Candida parapsilosis assessed as fungal growth inhibition by CLSI based microdilution method; conditions: Lodderomyces parapsilosis
# [4] = tested on: Nakaseomyces glabratus; experiment: Antifungal activity against Candida glabrata assessed as fungal growth inhibition by CLSI based microdilution method
# [5] = tested on: Cryptococcus neoformans; experiment: Antifungal activity against Cryptococcus neoformans assessed as fungal growth inhibition by CLSI based microdilution method
# [6] = tested on: Pichia kudriavzevii; experiment: Antifungal activity against Pichia kudriavzevii assessed as fungal growth inhibition by CLSI based microdilution method
# [7] = tested on: Candida tropicalis; experiment: Antifungal activity against Candida tropicalis assessed as fungal growth inhibition by CLSI based microdilution method
# [8] = tested on: Candida albicans; experiment: Antifungal activity against fluconazole-resistant Candida albicans 17# assessed as fungal growth inhibition by CLSI based microdilution method
# [9] = tested on: Candida albicans; experiment: Antifungal activity against fluconazole-resistant Candida albicans 901 assessed as fungal growth inhibition by CLSI based microdilution method
# [10] = tested on: Candida albicans; experiment: Antifungal activity against fluconazole-resistant Candida albicans 904 assessed as fungal growth inhibition by CLSI based microdilution method
# [11] = tested on: Candida albicans; experiment: Antifungal activity against fluconazole-resistant Candida albicans 632 assessed as fungal growth inhibition by CLSI based microdilution method
# [12] = tested on: Candida albicans; experiment: Antifungal activity against fluconazole-resistant Candida albicans CaR assessed as fungal growth inhibition by CLSI based microdilution method
Compound,MIC [1],MIC [2],MIC [3],MIC [4],MIC [5],MIC [6],MIC [7],MIC [8],MIC [9],MIC [10],MIC [11],MIC [12]
O=c1ccc2cc(COC(Cn3ccnn3)c3ccc(F)cc3F)ccc2o1 (configuration not stated),> 128 µg/mL,> 128 µg/mL,128 µg/mL,> 128 µg/mL,> 128 µg/mL,> 128 µg/mL,> 128 µg/mL,–,–,–,–,–
CCC(C)n1ncn(-c2ccc(N3CCN(c4ccc(OCC5COC(Cn6cncn6)(c6ccc(Cl)cc6Cl)O5)cc4)CC3)cc2)c1=O (configuration not stated) [ITRACONAZOLE],–,–,–,–,–,–,–,128 µg/mL,> 128 µg/mL,> 128 µg/mL,64 µg/mL,64 µg/mL
O=c1oc2ccc(Cl)cc2cc1COC(Cn1ccnc1)c1ccc(Cl)cc1Cl (configuration not stated),16 µg/mL,0.25 µg/mL,16 µg/mL,128 µg/mL,16 µg/mL,128 µg/mL,128 µg/mL,–,–,–,–,–
O=c1ccc2cc(COC(Cn3cncn3)c3ccc(F)cc3F)ccc2o1 (configuration not stated),8 µg/mL,0.25 µg/mL,4 µg/mL,16 µg/mL,64 µg/mL,32 µg/mL,64 µg/mL,–,–,–,–,–
O=c1oc2ccccc2cc1COC(Cn1cncn1)c1ccc(Cl)cc1Cl (configuration not stated),4 µg/mL,0.25 µg/mL,4 µg/mL,8 µg/mL,16 µg/mL,32 µg/mL,16 µg/mL,–,–,–,–,–
O=c1oc2ccc([N+](=O)[O-])cc2cc1COC(Cn1ccnc1)c1ccc(Cl)cc1Cl (configuration not stated),> 128 µg/mL,64 µg/mL,> 128 µg/mL,128 µg/mL,128 µg/mL,> 128 µg/mL,> 128 µg/mL,–,–,–,–,–
O=c1ccc2cc(COC(Cn3ccnc3)c3ccc(F)cc3)ccc2o1 (configuration not stated),2 µg/mL,0.5 µg/mL,4 µg/mL,32 µg/mL,64 µg/mL,64 µg/mL,8 µg/mL,128 µg/mL,64 µg/mL,32 µg/mL,64 µg/mL,128 µg/mL
O=c1ccc2ccc(COC(Cn3ccnn3)c3ccc(F)cc3F)cc2o1 (configuration not stated),> 128 µg/mL,> 128 µg/mL,> 128 µg/mL,128 µg/mL,> 128 µg/mL,> 128 µg/mL,4 µg/mL,–,–,–,–,–
O=c1oc2ccc(Cl)cc2cc1COC(Cn1ccnc1)c1ccc(F)cc1F (configuration not stated),32 µg/mL,0.25 µg/mL,16 µg/mL,128 µg/mL,16 µg/mL,128 µg/mL,128 µg/mL,–,–,–,–,–
COc1cccc2cc(COC(Cn3ccnc3)c3ccc(F)cc3F)c(=O)oc12 (configuration not stated),0.25 µg/mL,0.25 µg/mL,0.06 µg/mL,4 µg/mL,0.06 µg/mL,2 µg/mL,32 µg/mL,–,–,–,–,–
O=c1oc2ccc(F)cc2cc1COC(Cn1ccnc1)c1ccc(Cl)cc1Cl (configuration not stated),0.5 µg/mL,0.25 µg/mL,0.5 µg/mL,2 µg/mL,0.5 µg/mL,2 µg/mL,64 µg/mL,–,–,–,–,–
O=c1ccc2cc(COC(Cn3ccnn3)c3ccc(Cl)cc3Cl)ccc2o1 (configuration not stated),> 128 µg/mL,128 µg/mL,64 µg/mL,64 µg/mL,128 µg/mL,128 µg/mL,64 µg/mL,–,–,–,–,–
COc1cccc2cc(COC(Cn3ccnc3)c3ccc(Cl)cc3Cl)c(=O)oc12 (configuration not stated),0.25 µg/mL,0.25 µg/mL,0.5 µg/mL,32 µg/mL,0.5 µg/mL,32 µg/mL,128 µg/mL,–,–,–,–,–
O=c1ccc2cc(COC(Cn3cnnn3)c3ccc(Cl)cc3Cl)ccc2o1 (configuration not stated),1 µg/mL,2 µg/mL,32 µg/mL,16 µg/mL,128 µg/mL,64 µg/mL,32 µg/mL,–,–,–,–,–
O=c1oc2c(Cl)cc(Cl)cc2cc1COC(Cn1ccnc1)c1ccc(F)cc1F (configuration not stated),> 128 µg/mL,> 128 µg/mL,> 128 µg/mL,> 128 µg/mL,64 µg/mL,> 128 µg/mL,> 128 µg/mL,–,–,–,–,–
O=c1ccc2ccc(COC(Cn3cnnn3)c3ccc(F)cc3F)cc2o1 (configuration not stated),> 128 µg/mL,> 128 µg/mL,128 µg/mL,64 µg/mL,8 µg/mL,32 µg/mL,64 µg/mL,–,–,–,–,–
O=c1ccc2cc(COC(Cn3ccnc3)c3ccc(F)cc3F)ccc2o1 (configuration not stated),0.5 µg/mL,0.25 µg/mL,2 µg/mL,16 µg/mL,32 µg/mL,8 µg/mL,2 µg/mL,4 µg/mL,32 µg/mL,32 µg/mL,64 µg/mL,64 µg/mL
